What was measured:
Format in all cases: cell-based, Saccharomyces cerevisiae
hem1Δ yeasts [1] = assay: Restoration of growth of lipo-intoxicated hem1Δ yeasts (drop test on agar); conditions: SFA accumulation conditions; 5 μl drops on agar; after three days
Experimental: FIG. 3B—The hem1Δ yeasts were cultivated in conditions of SFA accumulation as indicated. 5 μl drops of OAG, LPA and oleic acid in the concentrations indicated were then deposited on the surface of the agar medium. The restoration of growth of the hem1Δ yeasts is observed in the formation of colonies after three days.
The strain carrying the hem1Δ strain is cultivated, under aerobic conditions, under stirring and at 28° C., in a YPG^A liquid medium (YPG (yeast extract 1% (m/v), peptone 1% (m/v) and glucose 2% (m/v)) supplemented with δ-aminolevulinic acid (ALA) at 80 μg/mL). Lipotoxicity by saturated fatty acids (SFA) is prompted by depletion of unsaturated fatty acids (UFA)—the synthesis of which is dependent on the presence of haem (prosthetic grouping of the enzyme Ole1p especially)—by transfer into YPG^+ medium (YPG supplemented with ergosterol at 80 μg/mL to compensate for the depletion in sterol obtained under these conditions). The lipotoxicity can be induced in a solid medium YPG^++agar 2% (m/v) in transferring 3500 cells (hem1Δ coming from a pre-culture in YPG^A)/cm^2 or *alternatively in a liquid medium in inoculating 2·10^6 cells/mL of YPG^+. Classically, the effects of lipotoxicity on SFA are analyzed 7 h after the transfer into YPG^+ medium. The capacity of a compound to counter the deleterious effects of lipotoxicity with SFA is for its part evaluated successively with the addition of this compound on (or in) the YPG^+ transfer medium after seeding with cells.
1) Screening of compounds: Following the induction of lipotoxicity with SFA (for hem1Δ cultivated in a solid medium), 5 μL drops of solutions of different compounds at 10 mM in dimethylsulfoxide (DMSO) or in ethanol (EtOH) are deposited on the surface of agar. The capacity of a compound to counter the lipo-induced stoppage of cell growth is estimated by the appearance of a halo of hem1Δ colonies at the position of the deposit of said compound after three days of culture at 28° C. (cf. Deguil et al., 2011).

QM strain = assay: Toxicity test on QM strain (growth inhibition haloes); conditions: after three days
Experimental: 5 μl drops of OAG, LPA or oleic acid were deposited, from stock solutions in the concentrations indicated, on the surface of an agar medium on which the QM strain had been preliminarily spread. […] These haloes are on the contrary not observed in the presence of LPA and OAG.
At the same time, wild strains (WT) and QM are cultivated in aerobic conditions under stirring and at 28° C., in a YPG liquid medium before seeding 3500 cells per cm^2 of YPG+agar 2% (m/v). Following this transfer to solid medium, 1 μL drops of solutions of different compounds at 1, 10 and 100 mM in DMSO or EtOH are deposited on the surface of the agar. Separately, deposits of DMSO and EtOH are also made in order to assess the intrinsic toxicity of these two solvents. After three days of culture of 28° C., the toxicity of the tested compounds is evaluated by comparing the diameters of the growth inhibition haloes obtained for the deposits of undissolved solvents with those of the deposits of different concentrations of compounds tested.

hem1Δ yeasts [2] = assay: Phospholipid fatty acid content by mass spectrometry in lipo-intoxicated hem1Δ yeasts
Experimental: The hem1Δ yeasts were cultivated in standard conditions (control) or in conditions of SFA accumulation without (Ø) or with the addition of 100 μM of oleic acid, LPA or OAG as indicated.
FIG. 6A—After 7 h of incubation, the phospholipids (PL) were extracted and the different species of phosphatidylcholine (PC), which constitute the predominantly present PL were analyzed by mass spectrometry in positive mode, according to Pineau et al. (2008).
FIG. 6B—All the species of PL detectable in these conditions of mass spectrometry were analyzed to globally quantify the content in SFA forms.
The hem1Δ strain is cultivated in a YPG^A, YPG^+ or YPG^+ liquid medium+200 μM of compound to be tested in aerobic conditions, under stirring and at 28° C. for 7 h, starting from an initial cell concentration of 2·10^6 cells/mL. At the end of the culture, 10^8 cells are collected in order to carry out the extraction of the total lipids. After the cells have been put in suspension in 1 mL of distilled water at 4° C., 500 μL of glass beads (Ø 0.6 mm) are added and the whole mixture then undergoes three sequences of 20 seconds at 5000 rpm in a stirrer (the tubes are kept on ice between each of the three sequences). The cellular lysate then obtained, complemented with water for rinsing the beads (1 mL), is then transferred into a 40 mL glass tube (Corex™) and then the lipids are extracted by using a methanol:chloroform ratio of 2:1 (v/v). Initially, 6 mL of methanol are added and the entire mixture is vortexed for 30 seconds and then incubated for 15 minutes at 65° C. Once the mixture has been cooled to ambient temperature, […] of chloroform is added and then the entire mixture is again vortexed for 30 seconds before allowing the extraction to take place for 16 h. Subsequently, the sample is centrifuged for 12 minutes at 10000 g and then the supernatant is transferred into a new Corex™ tube. After the addition of 2 mL of chloroform and then 4 mL of distilled water, the entire mixture is vortexed for 30 seconds and then centrifuged for 8 minutes at 3000 g. After elimination of the resultant upper phase, the lower organic phase is collected in a hemolysis tube made of glass. Finally, the solvent is evaporated under a nitrogen stream at 80° C. to obtain total cell lipid samples.
The samples of total cell lipids are put back into suspension in 1 mL of dichloromethane in being vortexed for 30 seconds. The entire mixture is deposited on a silica column (BOND ELUT-SI, 100 mg 1 mL) preconditioned with 3 mL of methanol and then 2 mL of dichloromethane successively. The fraction retained by the column is then washed with 2 mL of dichloromethane and then 2 mL of acetone successively. Finally, 2 mL of a mixture of chloroform/methanol/water 50:45:5 (v/v/v) are deposited on the column and the phospholipids thus eluted are collected in a glass hemolysis tube. The solvent is evaporated under nitrogen at 80° C. to obtain the samples of cellular phospholipids.
Once put back into suspension in 100 μL of mixture Mix^− (isopropanol/acetonitrile/water 2:1:1 (v/v/v)+triethylamine 1% (v/v)) or mixture Mix^+ (isopropanol/acetonitrile/water 2:1:1 (v/v/v)+formic acid 1% (v/v)), the samples are analyzed by mass spectrometry (Electro Spray Ionization-Mass Spectrometry (ESI-MS)) in negative or positive mode respectively and the results obtained serve to analyze the fatty acid content of the different species of phospholipids.

CCCCCCCC/C=C\CCCCCCCC(=O)O [oleic acid, reference compound]
restoration of growth of lipo-intoxicated hem1Δ yeasts (formation of colonies) (hem1Δ yeasts [1]): restore the growth
toxicity for cells that do not synthesize triglycerides (QM strain; QM strain on agar medium): toxicity
haloes of growth inhibition (absence of colonies) (QM strain; QM strain, 5 μl drops on agar): haloes of growth inhibition (absence of colonies) can be observed
plasticity of membranes previously lipo-intoxicated by SFAs (hem1Δ yeasts [2]; hem1Δ yeast model): restores the plasticity of the membranes
production of di-unsaturated phospholipids (level of PC species 36:2) (hem1Δ yeasts [2]; hem1Δ, SFA accumulation, 100 μM compound, 7 h): increase of the level of this species

— patent US9821000B2, “Compounds, compositions and corresponding uses for preventing and/or treating of dyslipidemia” (CENTRE NATIONAL DE LA RECHERCHE SCIENTIFIQUE (CNRS), priority 2013, dated 2017)
